Details: 303.15 K, Liquid, Vibrating tube method

CCCCCCCC(=O)OCC(COC(=O)CCCCCCC)(COC(=O)CCCCCCC)COC(=O)CCCCCCC [pentaerythritol tetraoctanoate]
Details	mass density [kg/m3]
17535 kPa	966
17571 kPa	965.8
17601 kPa	966
17637 kPa	966
17674 kPa	966.1
17705 kPa	966
17742 kPa	966.1
17773 kPa	966.1
17810 kPa	966
17848 kPa	966.2
17879 kPa	966.2
17916 kPa	966.1
17948 kPa	966.1
17985 kPa	966.2
18024 kPa	966.2
18056 kPa	966
18095 kPa	966.2
18133 kPa	966.3
18165 kPa	966.2
18205 kPa	966.3
18238 kPa	966.4
18278 kPa	966.3
18311 kPa	966.4
18351 kPa	966.5
18391 kPa	966.5
18424 kPa	966.4
18465 kPa	966.4
18499 kPa	966.5
18540 kPa	966.5
18573 kPa	966.5
18614 kPa	966.5
18656 kPa	966.5
18690 kPa	966.5
18732 kPa	966.6
18768 kPa	966.6
18810 kPa	966.7
18851 kPa	966.7
18886 kPa	966.8
18930 kPa	966.6
18966 kPa	966.7
19009 kPa	966.9
19045 kPa	966.8
19087 kPa	966.7
19131 kPa	966.9
19168 kPa	966.8
19211 kPa	966.9
19248 kPa	967
19292 kPa	967.1
19338 kPa	966.9
19375 kPa	966.9
19420 kPa	966.9
19458 kPa	967
19502 kPa	967
19548 kPa	967.1
19586 kPa	967.1
19632 kPa	967.1
19677 kPa	967.1
19715 kPa	967.1
19762 kPa	967.2
19802 kPa	967.2
19851 kPa	967.3
19890 kPa	967.2
19938 kPa	967.3
19986 kPa	967.3
20025 kPa	967.4
20074 kPa	967.3
20115 kPa	967.4
20163 kPa	967.4
20203 kPa	967.4
20252 kPa	967.5
20302 kPa	967.4
20344 kPa	967.4
20397 kPa	967.5
20440 kPa	967.5
20489 kPa	967.5
20532 kPa	967.5
20582 kPa	967.6
20632 kPa	967.7
20674 kPa	967.7
20724 kPa	967.7
20766 kPa	967.8
20817 kPa	967.8
20872 kPa	967.7
20948 kPa	968
21030 kPa	968
21112 kPa	968
21144 kPa	968
21170 kPa	968
21194 kPa	968
21222 kPa	968
21244 kPa	967.9
21272 kPa	968
21299 kPa	968
21322 kPa	968.1
21350 kPa	968
21374 kPa	968
21402 kPa	968.1
21425 kPa	968.1
21454 kPa	968.2
21478 kPa	968.1
21506 kPa	968.1
21533 kPa	968.2
21557 kPa	968.2
21585 kPa	968.2
21610 kPa	968.2
21636 kPa	968.2
21666 kPa	968.2
21690 kPa	968.2
21721 kPa	968.4
21743 kPa	968.2
21775 kPa	968.2
21798 kPa	968.3
21827 kPa	968.3
21850 kPa	968.4
21880 kPa	968.3
21909 kPa	968.3
21933 kPa	968.4
21964 kPa	968.4
21988 kPa	968.3
22017 kPa	968.4
22049 kPa	968.5
22071 kPa	968.4
22101 kPa	968.5
22126 kPa	968.5
22158 kPa	968.6
22186 kPa	968.5
22214 kPa	968.5
22241 kPa	968.7
22266 kPa	968.6
22297 kPa	968.6
22328 kPa	968.6
22355 kPa	968.7
22385 kPa	968.7
22411 kPa	968.7
22441 kPa	968.7
22473 kPa	968.8
22499 kPa	968.6
22531 kPa	968.8
22556 kPa	968.7
22588 kPa	968.8
22614 kPa	968.8
22647 kPa	968.8
22677 kPa	968.8
22703 kPa	968.9
22736 kPa	968.8
22762 kPa	968.9
22795 kPa	968.9
22823 kPa	968.9
22855 kPa	969
22884 kPa	969
22910 kPa	968.9
22944 kPa	968.9
22976 kPa	969
23001 kPa	969
23032 kPa	968.9
23066 kPa	969.2
23092 kPa	969
23125 kPa	969.1
23153 kPa	968.9
23185 kPa	969.2
23220 kPa	969.1
23246 kPa	969.2
23276 kPa	969.1
23312 kPa	969.2
23339 kPa	969.2
23371 kPa	969.2
23405 kPa	969.2
23434 kPa	969.3
23465 kPa	969.3
23500 kPa	969.2
23527 kPa	969.3
23561 kPa	969.3
23590 kPa	969.3
23626 kPa	969.4
23656 kPa	969.3
23690 kPa	969.4
23721 kPa	969.3
23753 kPa	969.5
23781 kPa	969.4
23817 kPa	969.5
23853 kPa	969.5
23880 kPa	969.5
23917 kPa	969.4
23950 kPa	969.5
23980 kPa	969.6
24016 kPa	969.5
24045 kPa	969.7
24080 kPa	969.5
24110 kPa	969.7
24146 kPa	969.6
24184 kPa	969.6
24212 kPa	969.6
24254 kPa	969.8
24280 kPa	969.7
24317 kPa	969.7
24348 kPa	969.8
24384 kPa	969.8
24420 kPa	969.7
24450 kPa	969.8
24488 kPa	969.9
24520 kPa	969.9
24557 kPa	969.8
24589 kPa	969.8
24627 kPa	969.8
24658 kPa	969.9
24697 kPa	969.9
24728 kPa	969.8
24766 kPa	970
24804 kPa	969.9
24836 kPa	969.9
24874 kPa	970.1
24906 kPa	970.1
24945 kPa	970.2
24978 kPa	970.1
25016 kPa	970.1
25048 kPa	970.2
25087 kPa	970.1
25126 kPa	970.1
25159 kPa	970.1
25199 kPa	970.2
25232 kPa	970.1
25272 kPa	970.2
25310 kPa	970.3
25343 kPa	970.2
25382 kPa	970.2
25416 kPa	970.2
25457 kPa	970.3
25491 kPa	970.4
25532 kPa	970.3
25575 kPa	970.3
25611 kPa	970.5
25653 kPa	970.3
25689 kPa	970.7
25726 kPa	970.3
25768 kPa	970.5
25804 kPa	970.5
25845 kPa	970.5
25882 kPa	970.6
25929 kPa	970.6
25969 kPa	970.5
26006 kPa	970.5
26051 kPa	970.7
26084 kPa	970.7
26119 kPa	970.7
26164 kPa	970.7
26203 kPa	970.7
26241 kPa	970.8
26285 kPa	970.8
26318 kPa	970.7
26384 kPa	970.8
26413 kPa	970.8
26446 kPa	970.8
26474 kPa	970.9
26520 kPa	970.9
26558 kPa	971
26597 kPa	971
26642 kPa	970.9
26681 kPa	971.1
26720 kPa	971
26767 kPa	971.1
26806 kPa	971.1
26846 kPa	971.1
26893 kPa	971.1
26934 kPa	971.2
26974 kPa	971
27015 kPa	971.2
27064 kPa	971.2
27104 kPa	971.2
27153 kPa	971.2
27193 kPa	971.2
27234 kPa	971.3
27275 kPa	971.4
27317 kPa	971.3
27366 kPa	971.3
27407 kPa	971.4
27450 kPa	971.4
27500 kPa	971.4
27543 kPa	971.4
27585 kPa	971.6
27636 kPa	971.4
27678 kPa	971.4
27720 kPa	971.6
27763 kPa	971.5
27814 kPa	971.6
27856 kPa	971.5
27907 kPa	971.5
27950 kPa	971.7
27993 kPa	971.7
28045 kPa	971.7
28089 kPa	971.7
28134 kPa	971.8
28178 kPa	971.9
28230 kPa	971.9
28273 kPa	971.8
28325 kPa	972
28369 kPa	971.9
